Laboratory results from PubChem BioAssay AID1195 (EPA DSSTox, 2008).

System: human maximum recommended daily dose, FDA database
Test: DSSTox (FDAMDD) FDA Maximum (Recommended) Daily Dose Database
Settings: active compounds read low
Outline: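 MRDD values come from clinical trials with daily oral dosing, usually for 3–12 months, for the average adult, in mg/day converted to mg/kg-bw/day assuming 60 kg. Antineoplastic mg/m2 doses are divided by 37. Activity score maps log10(1/MRDD mmol) onto 1–100.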

[1] = TherapeuticCategory: antipsychotic
[2] = TherapeuticCategory: antibacterial
[3] = TherapeuticCategory: anticonvulsant
[4] = TherapeuticCategory: antiemetic
[5] = TherapeuticCategory: anticholinergic

Compound: CCCc1nn(C)c2c(=O)[nH]c(-c3cc(S(=O)(=O)N4CCN(C)CC4)ccc3OCC)nc12
- maximum recommended daily dose (mmol/kg-bw/day) (TherapeuticCategory: erectile disfunction treatment): 0.00352

Compound: CCCC(C)C1(CC)C(=O)NC(=O)NC1=O (stereo not drawn)
- maximum recommended daily dose (mmol/kg-bw/day) (TherapeuticCategory: sedative, hypnotic): 0.0147

Compound: CCCC(=O)c1ccc2c(c1)N(CCCN1CCN(C)CC1)c1ccccc1S2
- maximum recommended daily dose (mmol/kg-bw/day) [1]: 0.00408

Compound: CC(C)(C)NC[C@H](O)COc1ccccc1C1CCCC1
- maximum recommended daily dose (mmol/kg-bw/day) (TherapeuticCategory: antihypertensive, antianginal, antiarrhythmic): 0.00456

Compound: C=CCOc1ccc(CC(=O)O)cc1Cl
- maximum recommended daily dose (mmol/kg-bw/day) (TherapeuticCategory: analgesic, antipyretic, anti inflammatory): 0.00737

Compound: C#C[C@]1(O)CC[C@H]2[C@@H]3CCc4cc(OC)ccc4[C@H]3CC[C@@]21C
- maximum recommended daily dose (mmol/kg-bw/day) (TherapeuticCategory: estrogen): 2.67e-06

Compound: C[C@@H](O)[C@H]1C(=O)N2C(C(=O)O)=C(SCCN=CN)C[C@H]12
- maximum recommended daily dose (mmol/kg-bw/day) [2]: 0.223

Compound: OC[C@H]1OC(O)[C@H](O)[C@@H](O)[C@H]1O (stereo partly drawn)
- maximum recommended daily dose (mmol/kg-bw/day) (TherapeuticCategory: diagnostic aid, hepatic function): 0.555

Compound: CC(C)(N)Cc1ccccc1Cl
- maximum recommended daily dose (mmol/kg-bw/day) (TherapeuticCategory: anorexic): 0.00454

Compound: CN(C/C=C/C#CC(C)(C)C)Cc1cccc2ccccc12
- maximum recommended daily dose (mmol/kg-bw/day) (TherapeuticCategory: topical antifungal): 0.0926

Compound: Nc1nnc(-c2cccc(Cl)c2Cl)c(N)n1
- maximum recommended daily dose (mmol/kg-bw/day) [3]: 0.026

Compound: OCCOCCN1CCN(C2=Nc3ccccc3Sc3ccccc32)CC1
- maximum recommended daily dose (mmol/kg-bw/day) [1]: 0.0347

Compound: CC(C)(C)NC[C@H](O)COc1nsnc1N1CCOCC1
- maximum recommended daily dose (mmol/kg-bw/day) (TherapeuticCategory: antihypertensive, antianginal, antiarrhythmic, antiglaucomic): 0.00316

Compound: CCN1CCN(C(=O)N[C@@H](C(=O)N[C@@H]2C(=O)N3C(C(=O)O)=C(CSc4nnnn4C)CS[C@H]23)c2ccc(O)cc2)C(=O)C1=O
- maximum recommended daily dose (mmol/kg-bw/day) [2]: 0.31

Compound: CCOc1ccccc1C(N)=O
- maximum recommended daily dose (mmol/kg-bw/day) (TherapeuticCategory: analgesic): 0.404

Compound: CCSc1ccc2c(c1)N(CCCN1CCN(C)CC1)c1ccccc1S2
- maximum recommended daily dose (mmol/kg-bw/day) [4]: 0.00125

Compound: CC[C@H]1OC(=O)[C@H](C)[C@@H](O[C@H]2C[C@@](C)(OC)[C@@H](O)[C@H](C)O2)[C@H](C)[C@@H](O[C@@H]2O[C@H](C)C[C@H](N(C)C)[C@H]2OC(C)=O)[C@](C)(O)C[C@@H](C)C(=O)[C@H](C)[C@@H](O)[C@]1(C)O
- maximum recommended daily dose (mmol/kg-bw/day) [2]: 0.0629

Compound: Cn1c(=O)c2[nH]cnc2n(C)c1=O
- maximum recommended daily dose (mmol/kg-bw/day) (TherapeuticCategory: bronchodilator): 0.0481

Compound: Cc1cccc(CN2CCN(C(c3ccccc3)c3ccc(Cl)cc3)CC2)c1 (stereo not drawn)
- maximum recommended daily dose (mmol/kg-bw/day) [4]: 0.00427

Compound: CN1CC[C@]23CCCC[C@H]2[C@H]1Cc1ccc(O)cc13
- maximum recommended daily dose (mmol/kg-bw/day) (TherapeuticCategory: narcotic analgesic): 0.000583

Compound: CC(=O)Nc1c(I)cc(I)c(C(=O)O)c1I
- maximum recommended daily dose (mmol/kg-bw/day) (TherapeuticCategory: diagnostic aid): 0.18

Compound: CC(CC(C)(C)O)OC(O)C(Cl)(Cl)Cl (stereo not drawn)
- maximum recommended daily dose (mmol/kg-bw/day) (TherapeuticCategory: hypnotic): 0.101

Compound: CCOC(=O)C1(c2ccccc2)CCCN(C)CC1 (stereo not drawn)
- maximum recommended daily dose (mmol/kg-bw/day) (TherapeuticCategory: analgesic): 0.0383

Compound: CCCCC[C@H](O)/C=C/[C@H]1[C@H](O)CC(=O)[C@@H]1C/C=C\CCCC(=O)O
- maximum recommended daily dose (mmol/kg-bw/day) (TherapeuticCategory: oxytocic, abortifacient): 7.09e-05

Compound: Cc1cc(C(=O)NCCc2ccc(S(=O)(=O)NC(=O)NN3CCCCCC3)cc2)no1
- maximum recommended daily dose (mmol/kg-bw/day) (TherapeuticCategory: antidiabetic): 0.000594

Compound: CCc1oc2ccccc2c1C(=O)c1cc(Br)c(O)c(Br)c1
- maximum recommended daily dose (mmol/kg-bw/day) (TherapeuticCategory: uricosuric): 0.0118

Compound: NCC[C@H](O)C(=O)N[C@@H]1C[C@H](N)[C@@H](O[C@H]2O[C@H](CN)[C@@H](O)[C@H](O)[C@H]2O)[C@H](O)[C@H]1O[C@H]1O[C@H](CO)[C@@H](O)[C@H](N)[C@H]1O
- maximum recommended daily dose (mmol/kg-bw/day) [2]: 0.0256

Compound: CN=C1CN(O)C(c2ccccc2)=c2cc(Cl)ccc2=N1
- maximum recommended daily dose (mmol/kg-bw/day) (TherapeuticCategory: anxiolytic): 0.00557

Compound: COC1CC(=C(c2cccs2)c2cccs2)C[N+](C)(C)C1 (stereo not drawn)
- maximum recommended daily dose (mmol/kg-bw/day) [5]: 0.00375

Compound: CN(C)CCCOC1(Cc2ccccc2)CCCCCC1
- maximum recommended daily dose (mmol/kg-bw/day) (TherapeuticCategory: vasodilator): 0.0345

Compound: NCCCC(N)(C(=O)O)C(F)F (stereo not drawn)
- maximum recommended daily dose (mmol/kg-bw/day) (TherapeuticCategory: antineoplastic, antineumocystis, antiprotozoal): 2.2

Compound: C[N+]1(C)CCC(OC(=O)CC(O)(c2ccccc2)C2CCCC2)C1 (stereo not drawn)
- maximum recommended daily dose (mmol/kg-bw/day) [5]: 0.000162

Compound: CC(C)CC(N(C)C)C1(c2ccc(Cl)cc2)CCC1 (stereo not drawn)
- maximum recommended daily dose (mmol/kg-bw/day) (TherapeuticCategory: anorexic): 0.000893

Compound: CCc1nn(CCCN2CCN(c3cccc(Cl)c3)CC2)c(=O)n1CC
- maximum recommended daily dose (mmol/kg-bw/day) (TherapeuticCategory: antidepressant): 0.00662

Compound: CC1(C)S[C@@H]2[C@H](NC(=O)COc3ccccc3)C(=O)N2[C@H]1C(=O)O
- maximum recommended daily dose (mmol/kg-bw/day) [2]: 0.0713

Compound: O=C(OC[C@H]1O[C@](O)(COC(=O)c2cccnc2)[C@@H](OC(=O)c2cccnc2)[C@@H]1OC(=O)c1cccnc1)c1cccnc1
- maximum recommended daily dose (mmol/kg-bw/day) (TherapeuticCategory: peripheral vasodilator): 0.111

Compound: CCC1(c2ccccc2)C(=O)NCNC1=O
- maximum recommended daily dose (mmol/kg-bw/day) [3]: 0.0382

Compound: Clc1ccc(C/C(=C\CN2CCCC2)c2ccccc2)cc1
- maximum recommended daily dose (mmol/kg-bw/day) (TherapeuticCategory: antihistaminic): 0.00481
